# Assay results from US20170050957A1, “4-AMINO-6-(HETEROCYCLIC)PICOLINATES AND 6-AMINO-2-(HETEROCYCLIC)PYRIMIDINE-4-CARBOXYLATES AND THEIR USE AS HERBICIDES” (Dow AgroSciences LLC, priority 2013, published 2017).
# Read-outs that look alike come from different tables or passages of the source.
# Experiments:
# [1] = system: Key Grass and Sedge Weeds as well as Grass Crops; assay: Post-emergent Test II herbicidal activity (Table 16); format: in vivo; settings: post-emergence, 336 h, 14 days after application; for pest or weed control at 35 g/ha: 35 g ai/ha; for pest or weed control at 70 g/ha: 70 g ai/ha; for pest or weed control at 140 g/ha: 140 g ai/ha
# How it was run: (§1)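 Visual injury rating (0 = none, 100% = complete kill) made 14 d after treatment, relative to untreated plants. Compounds in an acetone/DMSO/aqueous crop-oil/surfactant spray, at top rate and serial 1/2×-1/16× rates, were applied at 187 L/ha overhead to first-second true leaf plants raised 7-21 d in greenhouse.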
# [2] = system: Key Broadleaf Weed and Crop Species; assay: Post-emergent Test II herbicidal activity (Table 15); format: in vivo; settings: post-emergence, 336 h, 14 d; for pest or weed control at 35 g/ha: 35 g ai/ha; for pest or weed control at 70 g/ha: 70 g ai/ha; for pest or weed control at 140 g/ha: 140 g ai/ha
# How it was run: as §1
# [3] = Cyperus esculentus, yellow nutsedge (Cyperus esculentus), read-out: Visual Growth Reduction (%) 14 Days After Application CYPES
# [4] = Echinochloa crus-galli, barnyardgrass (Echinochloa crus-galli), read-out: Visual Growth Reduction (%) 14 Days After Application ECHCG
# [5] = Oryza sativa, rice (Oryza sativa), read-out: Visual Growth Reduction (%) 14 Days After Application ORYSA
# [6] = Triticum aestivum, wheat, spring (Triticum aestivum), read-out: Visual Growth Reduction (%) 14 Days After Application TRZAS
# [7] = Zea mays, maize, corn (Zea mays), read-out: Visual Growth Reduction (%) 14 Days After Application ZEAMX
# [8] = Abutilon theophrasti, velvetleaf (Abutilon theophrasti), read-out: Visual Growth Reduction (%) 14 Days After Application, ABUTH
# [9] = Amaranthus retroflexus, redroot pigweed (Amaranthus retroflexus), read-out: Visual Growth Reduction (%) 14 Days After Application, AMARE
# [10] = Brassica napus, oilseed rape, canola (Brassica napus), read-out: Visual Growth Reduction (%) 14 Days After Application, BRSNN
# [11] = Chenopodium album, lambsquarters (Chenopodium album), read-out: Visual Growth Reduction (%) 14 Days After Application, CHEAL
# [12] = Euphorbia heterophylla, wild poinsettia (Euphorbia heterophylla), read-out: Visual Growth Reduction (%) 14 Days After Application, EPHHL
# [13] = Helianthus annuus, sunflower (Helianthus annuus), read-out: Visual Growth Reduction (%) 14 Days After Application, HELAN
compound,measurement,setting,value
COC(=O)c1nc(-c2ccc3c(cnn3C)c2)c(F)c(N)c1Cl [Compound 4.03],pest or weed control at 35 g/ha,[1]; [3],0 to 29%
same,pest or weed control at 70 g/ha,[1]; [3],0 to 29%
same,pest or weed control at 140 g/ha,[1]; [3],0 to 29%
same,pest or weed control at 35 g/ha,[1]; [4],60 to 74%
same,pest or weed control at 70 g/ha,[1]; [4],75 to 84%
same,pest or weed control at 140 g/ha,[1]; [4],75 to 84%
same,pest or weed control at 35 g/ha,[1]; [5],0 to 29%
same,pest or weed control at 70 g/ha,[1]; [5],0 to 29%
same,pest or weed control at 140 g/ha,[1]; [5],0 to 29%
same,pest or weed control at 35 g/ha,[1]; [6],0 to 29%
same,pest or weed control at 70 g/ha,[1]; [6],0 to 29%
same,pest or weed control at 140 g/ha,[1]; [6],0 to 29%
same,pest or weed control at 35 g/ha,[1]; [7],0 to 29%
same,pest or weed control at 70 g/ha,[1]; [7],0 to 29%
same,pest or weed control at 140 g/ha,[1]; [7],0 to 29%
same,melting point,,156 to 159 °C
same,pest or weed control at 35 g/ha,[2]; [8],0 to 29%
same,pest or weed control at 70 g/ha,[2]; [8],0 to 29%
same,pest or weed control at 140 g/ha,[2]; [8],0 to 29%
same,pest or weed control at 35 g/ha,[2]; [9],0 to 29%
same,pest or weed control at 70 g/ha,[2]; [9],45 to 59%
same,pest or weed control at 140 g/ha,[2]; [9],75 to 84%
same,pest or weed control at 35 g/ha,[2]; [10],0 to 29%
same,pest or weed control at 70 g/ha,[2]; [10],0 to 29%
same,pest or weed control at 140 g/ha,[2]; [10],0 to 29%
same,pest or weed control at 35 g/ha,[2]; [11],95 to 100%
same,pest or weed control at 70 g/ha,[2]; [11],95 to 100%
same,pest or weed control at 140 g/ha,[2]; [11],95 to 100%
same,pest or weed control at 35 g/ha,[2]; [12],45 to 59%
same,pest or weed control at 70 g/ha,[2]; [12],60 to 74%
same,pest or weed control at 140 g/ha,[2]; [12],75 to 84%
same,pest or weed control at 35 g/ha,[2]; [13],0 to 29%
same,pest or weed control at 70 g/ha,[2]; [13],45 to 59%
same,pest or weed control at 140 g/ha,[2]; [13],60 to 74%
